{"source": "patent US20080248008A1", "about": "“Inhibitors of Protein Kinase a Anchoring” (priority 2004, published 2008)", "key": {"[1]": {"test_system": "human peripheral blood T cells", "experiment": "IL-2 production assay in T cells (ELISA)", "format": "cell-based", "description": "IL-2 production. T cells were cultured and activated by 10 or 50 μM Sp-8-Br-cAMPs (a cAMP agonist) for 15 minutes before the T cells were activated by anti-CD3/anti-CD28 beads (Dynal) for 20 hours. Cell free supernatants were harvested and stored at −80° C. until analsysed. The IL-2 levels were determined by Elisa (R & D Systems, Europe Ltd., UK):\nIL-2 production Assay. Primary T cells were stimulated or not with anti-CD3/anti-CD28 coated beads (Dynal, cat. no. 111.31) for 20 hours, thereafter supernatants were harvested and the concentration of IL-2 was assessed by ELISA (R&D Systems, cat. no D2050). When used, 8-CPT-cAMP was added for 15 minutes before CD3/CD28 treatment.\nTo examine the effect of MEME3 on cytokine production, IL-2 levels in medium from human peripheral blood T cells treated with MEME3-Arg11 were measured by ELISA. First, cells were treated with MEME3-Arg11 for 12 hours, thereafter the PKA inhibitory pathway was activated by 10 or 50 μM Sp-8-Br-cAMPs (a cAMP agonist) for 15 minutes before the T cells were activated by CD3/CD28 stimulation (FIG. 21)."}, "[2]": {"test_system": "Csk-PS364", "experiment": "Csk phosphoserine 364 level in forskolin-stimulated T cells", "format": "cell-based, human", "details": "25 μM, 12 hours", "description": "Antibodies. RI or RII were immunoprecipitated with polyclonal antibodies against human RI or human RII at a 3 μg/ml dilution (Santa Cruz Biotechnology). MEME3 or scrambled peptide was immunoprecipitated with 1.5 μl of anti-GFP antiserum (Invitrogen). Monoclonal (Transduction laboratories) or polyclonal antibodies (Santa Cruz Biotechnology) against human RIα and RIIα were used at a 1 μg ml^−1 or 0.5 μg ml^−1 ilution for Western blotting. Polyclonal antibodies against human Cα (Santa Cruz Biotechnology) and LAT (Upstate Biotechnology) were used at a 0.4 μg ml^−1 and a 1 μg ml^−1 dilution for Western blotting, respectively. Polyclonal antibodies against LckPY505 (Cell Signaling) were used at a 1:1000 dilution and polyclonal antibody raised towards PS364 in Csk were used as previously described (Yaqub et al., Biochem. J., 372: p 271-8, 2003). Polyclonal antibodies against StAR (Affinity BioReagents) were used at 1 μg ml^−1. […]\nPeripheral blood T cells were treated with 25 μM M3-Arg11 or mock treated for 12 hours and stimulated with forskolin to activate the PKA-Csk inhibitory pathway. Subsequently, cell lysates were subjected to […], blotting onto a PVDF membranes and the Csk phosphoserine 364 levels were assessed by immunoblotting using phosphospecific antibodies to Csk-PS364 (FIG. 19, upper panel)."}, "[3]": {"test_system": "mice with MAIDS", "experiment": "T cell proliferative response after in vivo treatment of mice with murine AIDS", "details": "75 mg/kg/day intraperitoneal, 10 days", "description": "Rad-LS infected mice with MAIDS (10-12 weeks postinfection) were treated with MEME3-Arg11 in doses corresponding to those used for other bioactive peptides in studies in mice. Parenteral administration was accomplished by injecting intraperitoneally peptide formulated in PBS. Thus, MAIDS mice were injected with vehicle (phosphate buffered saline, PBS, Ctr.) or treated with MEME3-Arg11 in PBS (M3) by intraperitoneal injection (75 mg/kg/day administered once daily) for 10 days (left panel). In parallel, healthy, uninfected mice were injected with PBS (Ctr.) or MEME3-Arg11 in PBS (M3) (right panel). Subsequently, T cell proliferative responses were assessed in vitro in a mixed population of unsorted lymph node mononuclear cells from treated and untreated animals by [^3H]-thymidine incorporation. T cell activation was accomplished in all samples by cross-ligation of anti-CD3 (mAb 2C11; 4 µg/ml). Cells were cultured for 72 h during which MEME3-Arg11 was added back. [^3H]-thymidine was included for the last 4 hours."}, "[4]": {"test_system": "StAR", "experiment": "StAR protein level in Y1 adrenal cells (immunoblot densitometry)", "format": "cell-based, mouse", "description": "Progesterone production and StAR protein level. Y1 cells were cultured overnight in 6-well plates at the density of 1.5×10^6 cells per well. To increase the basal level of StAR, the cells were pre-stimulated with 10 μM forskolin for 1 hour, washed twice with medium, before peptide loading. Thereafter, the cells were loaded with 50 μM of the arginine-coupled peptide for 5 hours before being treated with 5 μg/ml Actinomyocin D (Cat. No. A-9415, Sigma) for 30 min and stimulated with 10 μM forskolin (Cat. No. 344270, Calbiochem) or 10 IU/ml ACTH (Cat. No. A-6303, Sigma) for 12 hours. Media from cultures with different treatments were collected and diluted with plain medium to fall into the standard curves for the assay. Progesterone in the cell medium was measured by using either Spectria Progesterone RIA (Cat. No. 68521, Orion Diagnostica, Espoo, Finland) or DELFIA progesterone kit (Cat. No. A066-101, PerkinElmer) following the conditions recommended by the manufacture. The cells were lysed and the StAR protein was analysed by western blotting and the level measured by densiometric analysis.\nStAR protein levels in the samples from Example 28 were analysed by immunoblotting. StAR consists of a 37-kDa precursor form containing an N-terminal mitochondrial targeting sequence and a processed 30-kDa mature protein (Epstein and Ormejohnson, 1991; Stocco and Sodeman, 1991). Y1 adrenal cells expressed a low basal level of StAR (FIG. 27, upper panel, lane 1). Upon forskolin stimulation, a significant increase in mature StAR protein (lane 2) occurred consistent with an increase in cholesterol transport over the mitochondrial membrane and a corresponding increase in steroid biosynthesis (bar diagram in FIG. 26). The forskolin-stimulated levels of StAR protein were reduced by 60% in MEME3-Arg11 treated cells (lane 5 and lower panel). In contrast, treatment with SM3-Arg11 reduced StAR levels by […] (lane 8, and lower panel). Thus, MEME3-Arg11 reduced StAR levels by […] as SM3-Arg11. […]"}}, "note": "“Also recorded” adds a separate entry of the source."}
{"substance": "LEQYANQLADQIIKEATERRRRRRRRRrr [MEME3-Arg11]", "values": [{"measurement": "increase in IL-2 production", "setting": "[1]; 10 μM, relative to untreated T cells", "value": 2.5, "unit": "fold"}, {"measurement": "IL-2 levels", "setting": "[1]; 12 hours peptide, Sp-8-Br-cAMPs, CD3/CD28 stimulation", "value": "increased in samples treated with MEME3-Arg11 in a concentration-dependent manner"}, {"measurement": "reduction of Csk-PS364 level", "setting": "[2]", "value": 70, "unit": "%"}, {"measurement": "T cell responses to anti-CD3 ([3H]-thymidine) compared to infected, control-treated mice", "setting": "[3]", "value": "significant increase (p=0.013); also recorded: increased more than three-fold"}, {"measurement": "reduction of StAR levels relative to SM3-Arg11", "setting": "[4]", "value": "twice as much"}, {"measurement": "reduction of forskolin-stimulated levels of StAR protein", "setting": "[4]; forskolin", "value": 60, "unit": "%"}, {"measurement": "basal StAR level", "setting": "[4]; unstimulated", "value": "somewhat higher basal StAR level"}]}
